Values after ≈ are worked out from the molar mass of the structure shown. Read-outs that look alike come from different tables or passages of the source.
Tests used:
C. elegans DC19 = test: whole plant or invertebrate; format: cell-based, Caenorhabditis elegans; settings: Caenorhabditis elegans, 48 h, read-out: MMIC DC19
Text: (§1) The cuticle of C. elegans strain DC19 is known to be more permeable for small molecules compared to the wildtype N2.[30] DC19 is thereby considered an informative drug-sensitive test organism. In our assays, we determined the minimum mobility inhibitory concentration (MMIC) as a proxy for anthelmintic activity. […] In contrast, MMICs of some small molecule anthelmintics such as albendazole, mebendazole or PF-1022A were lower for DC19 (Fig. S1 ^†). […]
(§2) 2.2 In vitro tests against Caenorhabditis Elegans
(§3) The minimal motility inhibitory concentration (MMIC) of compounds 1-22 against C. elegans was determined as described before.3 Both strains, C. elegans N2 and DC19 were treated identically. Briefly, pre-cultures of C.elegans were kept on NGM agar plates infused with auxotrophic E.coli OP50 as food source.4 After 4 days the plates contained sufficient gravid worms, respectively. Worms were washed from the plates with M9 buffer using wide bore pipette tips. Egg preparation was carried out by treating the harvested worms with an alkaline hypochlorite solution (5 M NaOH + 5 % NaOCl 1:2) in polypropylene tubes. Larvae and adult […]
(§4) We carried out 3 washing steps (M9 buffer) to remove carry-over hypochlorite solution. Subsequently, the eggs were incubated overnight in NGM broth on a rotator to yield synchronized hatched L1/L2 larvae. The larvae solution was adjusted to 100 worms/mL and supplemented with cholesterol (5 µg/mL), carbenicillin (25 µg/mL) and E.coli OP50 (0.5%). This assay solution was distributed into 96 well plates and incubated with a dilution series of compounds 1-22 (64-0.5 µg/mL). An additional eight-point dilution series of ivermecin (40 – 0.3 ng/mL) was used as positive control on each assay plate. Solvent background was controlled by supplementation of pure DMSO without any compound. Assays were incubated for 2 days at room temperature. Finally, a cell imaging multimode reader (Cytation™ 5) was used to record short videos (1.5 seconds) of each individual test well. The videos were used to evaluate the worm motility.

C. elegans N2 = test: whole plant or invertebrate; format: cell-based, Caenorhabditis elegans; settings: Caenorhabditis elegans, 48 h, read-out: MMIC N2
Text: as §1, §2, §3, §4

[1] = tested on: Escherichia coli ATCC35218; test: microbe, parasite or virus in culture; format: cell-based; settings: ATCC35218, read-out: MIC Ec
Experimental: (§5) The minimum inhibitory concentration (MIC) of the synthesized compounds was initially determined against three microbial indicator strains (Escherichia coli ATCC35218, […] ATCC33592, Septoria tritici MUCL45408). […]
(§6) 2. Microbial and parasitological studies
(§7) The minimum inhibitory concentration (MIC) of the synthesized compounds was determined against three microbial indicator strains (E. coli ATCC35218, S. aureus ATCC33592 and S. tritici MUCL45408) as previously described.1,2 All samples were dissolved in DMSO and tested in triplicate. Briefly, a pre-culture of E. coli and S. aureus was prepared by incubating the strains in cation adjusted Mueller Hinton 2 broth (Becton Dickinson, Sparks, NV, USA) at 37°C and 180 rpm overnight. The cell density of adjusted to 5 × 10^5 cells/mL before assays were incubated at 37 °C, 180 rpm and 85% rH. Three distinct dilution series of standard antibiotics (gentamicin, rifampicin, […]
(§8) medium without test compound or positive control was used as negative control.
(§9) Medium background was averaged from 5 replicates. The turbidity of each well was […]

S. aureus ATCC33592 = test: microbe, parasite or virus in culture; format: cell-based; settings: Staphylococcus aureus, ATCC33592, read-out: MIC Sa
Experimental: as §5, §6, §7, §8, §9

MDCK II cells = test: In vitro cytotoxicity, CellTiter-Glo, MDCK II cells; settings: 100 μM; for MDCKII cytotoxicity: 48 h, cell viability less than 80% relative to DMSO control = cytotoxic
[2] = tested on: Septoria tritici MUCL45408; test: Minimum inhibitory concentration (MIC), S. tritici (ATP quantification); format: cell-based; settings: Zymoseptoria tritici, read-out: MIC St
Experimental: as §5, §6
The minimum inhibitory concentration (MIC) of the synthesized compounds was determined against three microbial indicator strains (E. coli ATCC35218, S. aureus ATCC33592 and S. tritici MUCL45408) as previously described.1,2 All samples were dissolved in DMSO and tested in triplicate. Briefly, a pre-culture of E. coli and S. aureus was prepared by incubating the strains in cation adjusted Mueller Hinton 2 broth (Becton Dickinson, Sparks, NV, USA) at 37°C and 180 rpm overnight. The cell density of adjusted to 5 × 10^5 cells/mL before assays were incubated at 37 °C, 180 rpm and 85% rH. Three distinct dilution series of standard antibiotics (gentamicin, rifampicin, and tetracycline) were used as positive controls on each assay plate. Inoculated medium without test compound or positive control was used as negative control.
Medium background was averaged from 5 replicates. The turbidity of each well was measured with a microplate spectrophotometer at 600 nm (LUMIstar® Omega, BMG Labtech) and growth inhibition was calculated relative to the absorption of the controls. For S. tritici MUCL45408 inoculated at a density of 1 × 10^5 cells/mL in potato […]
dextrose medium. Septoria assay plates were incubated for 4 days at 25 °C, 180 rpm and 85% rH. Tebuconazole, amphotericin B, and nystatin were used as positive controls. Cell viability was evaluated via ATP quantification (BacTiter-Glo™, Promega GmbH, Walldorf, Germany) according to the manufacturer’s instructions. […]

Schistosoma mansoni = test: In vitro tests against Schistosoma mansoni (vitality parameters of adult worm pairs); format: cell-based; settings: for activity against S. mansoni (100% effect strength in one parameter within 7 days = active): 10 or 20 μM; for motility score: score 3 normal motility to 0 dead, paragraph on 20 μM
Experimental: Subsequently, we tested whether compounds with nematocidal activity display a broader activity also against parasitic flatworms. To this end, in vitro tests against the blood fluke S. mansoni were conducted (Fig. 4). The worms were incubated in presence of 10 and 20 μM of compounds 1–22 and phenotypic vitality parameters (separation of worm pairs, detachment of suckers from the bottom of the well and weakening of body movements) were assessed as previously described.[31] Compounds reaching 100% effect strength in one of the parameters within 7 days were considered active. Reduction of motility is considered most relevant for antischistosomal drug candidates.[32] In addition, loss of sucker activity would make parasites drifting off from their host habitat (mesenteric veins) and with pair separation, the production of pathology-causing eggs eventually ceases.[33] […] For some molecular targets e.g. glutamate and GABA chloride channels (ivermecin, abamectin) and β-tubulin (albendazole, mebendazole) the C. elegans assays results were transferable to Schistosoma, while for others e.g. acetylcholin mimetic (levamisole) the C. elegans MMIC was not predicative (Fig. S1 ^†).
2.2 Parasitological studies
Animal experiments were performed in accordance with Directive 2010/63/EU on the protection of animals used for scientific purposes and the German Animal Welfare Act. The experiments were approved by the Regional Council (Regierungspraesidium) Giessen (V54 – […]
A Liberian strain of S. mansoni was maintained in the freshwater snail Biomphalaria glabrata as intermediate host and Syrian hamsters (Mesocricetus auratus) as final host (Janvier Labs, France).5,6 Hamsters were infected at 8 weeks of age with 1,750 cercariae by using the paddling method.7 Adult worms were collected at 46 days p.i. by hepatoportal perfusion and cultured in M199 medium (Sigma-Aldrich, Germany) supplemented with 10% Newborn Calf Serum (NCS, Sigma-Aldrich), 1% 1 M HEPES (ThermoFisher Scientific, USA) and 1% ABAM solution (10,000 units/ml penicillin, 10 mg/ml streptomycin and […] amphotericin B; Sigma-Aldrich, Germany) at 37 °C, 5% CO2 and humidified atmosphere.
2.2.3. In vitro tests against Schistosoma mansoni
Test compounds were added at 10 µM or 20 µM in supplemented M199 medium to schistosomes (5 worm pairs per replicate) followed by a 7 d in vitro culture. Worms receiving the solvent DMSO at equal dilution served as negative control. The following vitality parameters were assessed every 24 h by bright field microscopy using a Leica DM IL inverted microscope and x2.5 objective lens: separation of worm pairs into male and female worms; detachment of suckers from the bottom; and weakening of body movements. Worm motility was scored as described previously, 8 with the scores 3 (normal motility), 2 (reduced motility), 1 (minimal and sporadic movements), 0 (no movements within 20 sec; dead worms). An average score of all worms per well was calculated to obtain a motility score. An average motility score of 0, separation of all pairs or detachment of all worms per well was considered

[3] = tested on: C. elegans strains N2 and DC19; test: MMIC against C. elegans, strains N2 and DC19 reported together or strain not stated; format: cell-based; settings: Caenorhabditis elegans, 48 h, C. elegans, read-out: MMIC N2 and DC19
Text: as §1, §2, §3, §4

[4] = 96 h, S. tritici MUCL45408, 4 days

Structure (SMILES) | minimal effective concentration (C. elegans DC19; C. elegans DC19, 2 days) | minimal effective concentration (C. elegans N2; C. elegans N2, 2 days) | MIC [1] | MIC (S. aureus ATCC33592) | MDCKII cytotoxicity (MDCK II cells) | MIC [2, 4] | activity against S. mansoni (100% effect strength in one parameter within 7 days = active) (Schistosoma mansoni) | minimal effective concentration [3] | phenotypic changes / vitality parameters of Schistosoma (Schistosoma mansoni; up to 20 μM, in comparison to the untreated control) | minimal effective concentration (C. elegans DC19) | minimal effective concentration (C. elegans N2) | MIC ([2]; MUCL45408, 96 h) | motility score (Schistosoma mansoni) | cytotoxicity against MDCK II (in words) (MDCK II cells) | sucker detachment of Schistosoma worm pairs (Schistosoma mansoni; 10 μM)
CCCCN1CC(Cl)CC2(CC2)C1 (stereo not drawn) [Compound 17] | > 64 µg/mL | > 64 µg/mL | > 64 µg/mL | > 64 µg/mL | − (“−” (not toxic)) | > 64 µg/mL |  |  |  |  |  |  |  |  | 
Cc1cc(CN2CC(Cl)CC(C)(C)C2)cc(CN2CC(Cl)CC(C)(C)C2)c1 (stereo not drawn) [Compound 7] | 16 µg/mL |  | > 64 µg/mL | > 64 µg/mL |  | > 64 µg/mL | showed an effect on S. mansoni | < 20 µg/mL |  |  |  |  |  |  | 
CC1(C)CC(Cl)CN(Cc2ccccc2CN2CC(Cl)CC(C)(C)C2)C1 (stereo not drawn) [Compound 8] |  | 8 µg/mL | > 64 µg/mL | > 64 µg/mL |  |  |  | < 20 µg/mL | did not inflict any phenotypic changes |  |  |  |  |  | 
CC1(C)CC(Cl)CN(Cc2ccccc2)C1 (stereo not drawn) [Compound 18] |  |  | > 64 µg/mL | > 64 µg/mL | + (“+” (toxic)) |  |  |  |  | 32 µg/mL | > 64 µg/mL | > 64 µg/mL |  |  | 
COc1cc(CN2CC(O)CC(C)(C)C2)cc(CN2CC(O)CC(C)(C)C2)c1 (stereo not drawn) [Compound 22] | > 64 µg/mL | > 64 µg/mL | > 64 µg/mL | > 64 µg/mL | − (“−” (not toxic)) | > 64 µg/mL |  |  |  |  |  |  |  |  | 
Cl[C@@H]1CCCN(Cc2ccccc2)C1 [Compound 20] | > 64 µg/mL | > 64 µg/mL | > 64 µg/mL | > 64 µg/mL | − (“−” (not toxic)) | > 64 µg/mL |  |  |  |  |  |  |  |  | 
CC1(C)CC(Cl)CN(Cc2cccc(CN3CC(Cl)CC(C)(C)C3)c2)C1 (stereo not drawn) [Compound 1] |  |  | > 64 µg/mL | > 64 µg/mL | + (“+” (toxic)) |  | Schistosoma-specific |  |  |  | 64 µg/mL | 64 µg/mL (≈ 161 µM) | 1–1.2 | cytotoxic | 
CCCCN1CC(Cl)CC(C)(C)C1 (stereo not drawn) [Compound 16] |  |  | > 64 µg/mL | > 64 µg/mL | − (“−” (not toxic)) |  |  |  |  | > 64 µg/mL | > 64 µg/mL | > 64 µg/mL |  |  | 
Cl[C@H]1CCCN(Cc2ccccc2)C1 [Compound 19] | > 64 µg/mL | > 64 µg/mL | > 64 µg/mL | > 64 µg/mL | − (“−” (not toxic)) | > 64 µg/mL |  |  |  |  |  |  |  |  | 
CC1(C)CC(Cl)CN([C@H]2CC[C@H](N3CC(Cl)CC(C)(C)C3)CC2)C1 (stereo partly drawn) [Compound 10] | > 64 µg/mL | > 64 µg/mL | > 64 µg/mL | > 64 µg/mL |  | > 64 µg/mL |  | ≥ 64 µg/mL |  |  |  |  |  |  | 
CC1(C)CC(Cl)CN(CCCC[C@@H](C(=O)OCCc2ccccc2)N2CC(Cl)CC(C)(C)C2)C1 (stereo partly drawn) [Compound 12] | 16 µg/mL |  | > 64 µg/mL | > 64 µg/mL |  | > 64 µg/mL | showed an effect on S. mansoni | < 20 µg/mL |  |  |  |  | 1–1.2 |  | full sucker detachment

— article PMC11718441, “Bis-3-chloropiperidines: a novel motif for anthelmintic drug design” (RSC Advances, 2025)
